Assay: xn = mol fraction of the nth substance listed

CCCCOC(C)=O + CCCCCCCC
298.15 K, 101.3 kPa
Conditions	viscosity [mPa·s]
x1 = 0.0442	0.5144
x1 = 0.1275	0.5154
x1 = 0.2822	0.5241
x1 = 0.3556	0.5333
x1 = 0.4596	0.5465
x1 = 0.5629	0.5633
x1 = 0.6356	0.5776
x1 = 0.7305	0.5991
x1 = 0.8441	0.6298
x1 = 0.9724	0.6725

CCCCOC(C)=O + CCCCCCCCC
298.15 K, 101.3 kPa
Conditions	viscosity [mPa·s]
x1 = 0.0459	0.6602
x1 = 0.1339	0.6474
x1 = 0.2324	0.6291
x1 = 0.3814	0.6318
x1 = 0.4218	0.6304
x1 = 0.4836	0.6314
x1 = 0.5989	0.632
x1 = 0.658	0.6382
x1 = 0.7574	0.6466
x1 = 0.8386	0.6563
x1 = 0.9486	0.6723

CCCCCCCCCCCCCCCCCCCC + CCCCCCCCCC
viscosity [mPa·s], 101.3 kPa
Conditions	x2 = 0.201	x2 = 0.4	x2 = 0.5	x2 = 0.6	x2 = 0.8
293.15 K	–	–	–	–	1.56
303.2 K	–	–	2.4	2.01	1.31
313.2 K	3.14	2.38	1.95	1.68	1.12

CCCCOC(C)=O + CCCCCCCCCC
298.15 K, 101.3 kPa
Conditions	viscosity [mPa·s]
x1 = 0.3547	0.7515
x1 = 0.4366	0.7352
x1 = 0.5375	0.7168
x1 = 0.6473	0.7018
x1 = 0.7119	0.6958
x1 = 0.8212	0.6854
x1 = 0.9331	0.6851

CCCOC(=O)c1ccccc1 + CCCCCCCCCC
101 kPa
Conditions	viscosity [mPa·s]
298.15 K, x2 = 0.0819	2.098
298.15 K, x2 = 0.1156	2.012
298.15 K, x2 = 0.1582	1.889
298.15 K, x2 = 0.2027	1.779
298.15 K, x2 = 0.2437	1.682
298.15 K, x2 = 0.2875	1.589
298.15 K, x2 = 0.3302	1.501
298.15 K, x2 = 0.3837	1.407
298.15 K, x2 = 0.4284	1.338
298.15 K, x2 = 0.4707	1.277
298.15 K, x2 = 0.5198	1.213
298.15 K, x2 = 0.57	1.156
298.15 K, x2 = 0.6127	1.112
298.15 K, x2 = 0.7143	1.02
298.15 K, x2 = 0.773	0.977
298.15 K, x2 = 0.8262	0.94
298.15 K, x2 = 0.8749	0.914
298.15 K, x2 = 0.9333	0.887
308.15 K, x2 = 0.0562	1.757
308.15 K, x2 = 0.1002	1.658
308.15 K, x2 = 0.1418	1.569
308.15 K, x2 = 0.1788	1.495
308.15 K, x2 = 0.2302	1.4
308.15 K, x2 = 0.264	1.343
308.15 K, x2 = 0.3167	1.256
308.15 K, x2 = 0.356	1.198
308.15 K, x2 = 0.3966	1.142
308.15 K, x2 = 0.4436	1.087
308.15 K, x2 = 0.4971	1.029
308.15 K, x2 = 0.5403	0.99
308.15 K, x2 = 0.5866	0.952
308.15 K, x2 = 0.6432	0.908
308.15 K, x2 = 0.6916	0.875
308.15 K, x2 = 0.7401	0.847
308.15 K, x2 = 0.7945	0.816
308.15 K, x2 = 0.8513	0.789
308.15 K, x2 = 0.9295	0.759
318.15 K, x2 = 0.0529	1.466
318.15 K, x2 = 0.0776	1.417
318.15 K, x2 = 0.1165	1.349
318.15 K, x2 = 0.161	1.273
318.15 K, x2 = 0.2024	1.211
318.15 K, x2 = 0.2495	1.144
318.15 K, x2 = 0.2905	1.092
318.15 K, x2 = 0.3397	1.034
318.15 K, x2 = 0.3834	0.987
318.15 K, x2 = 0.432	0.94
318.15 K, x2 = 0.4779	0.899
318.15 K, x2 = 0.5308	0.857
318.15 K, x2 = 0.5771	0.824
318.15 K, x2 = 0.6312	0.79
318.15 K, x2 = 0.6794	0.763
318.15 K, x2 = 0.7616	0.722
318.15 K, x2 = 0.8328	0.693
318.15 K, x2 = 0.8708	0.679
318.15 K, x2 = 0.906	0.668

CCCCOC(C)=O + CCCCCCCCCCCC
298.15 K, 101.3 kPa
Conditions	viscosity [mPa·s]
x1 = 0.133	1.231
x1 = 0.2982	1.09
x1 = 0.4364	0.9867
x1 = 0.4791	0.9597
x1 = 0.5426	0.9188
x1 = 0.683	0.8358
x1 = 0.7904	0.7782
x1 = 0.8705	0.7393
x1 = 0.9238	0.7176
x1 = 0.9757	0.6938

CCCOC(=O)c1ccccc1 + CCCCCCCCCCCC
101 kPa
Conditions	viscosity [mPa·s]
298.15 K, x2 = 0.0304	2.294
298.15 K, x2 = 0.0721	2.175
298.15 K, x2 = 0.1434	2.021
298.15 K, x2 = 0.1817	1.949
298.15 K, x2 = 0.2145	1.892
298.15 K, x2 = 0.3444	1.688
298.15 K, x2 = 0.3881	1.634
298.15 K, x2 = 0.4343	1.583
298.15 K, x2 = 0.4851	1.537
298.15 K, x2 = 0.5395	1.494
298.15 K, x2 = 0.5883	1.458
298.15 K, x2 = 0.6355	1.431
298.15 K, x2 = 0.6936	1.402
298.15 K, x2 = 0.7544	1.38
298.15 K, x2 = 0.8162	1.368
298.15 K, x2 = 0.8809	1.358
298.15 K, x2 = 0.9435	1.354
308.15 K, x2 = 0.0462	1.805
308.15 K, x2 = 0.0938	1.716
308.15 K, x2 = 0.1234	1.663
308.15 K, x2 = 0.1581	1.608
308.15 K, x2 = 0.1951	1.553
308.15 K, x2 = 0.237	1.499
308.15 K, x2 = 0.2799	1.449
308.15 K, x2 = 0.3153	1.411
308.15 K, x2 = 0.359	1.37
308.15 K, x2 = 0.4106	1.326
308.15 K, x2 = 0.4473	1.299
308.15 K, x2 = 0.4959	1.267
308.15 K, x2 = 0.5498	1.236
308.15 K, x2 = 0.6007	1.21
308.15 K, x2 = 0.6592	1.191
308.15 K, x2 = 0.7183	1.172
308.15 K, x2 = 0.7624	1.163
308.15 K, x2 = 0.8324	1.153
308.15 K, x2 = 0.9146	1.146
318.15 K, x2 = 0.026	1.532
318.15 K, x2 = 0.0634	1.473
318.15 K, x2 = 0.0967	1.423
318.15 K, x2 = 0.1355	1.371
318.15 K, x2 = 0.1705	1.328
318.15 K, x2 = 0.2119	1.28
318.15 K, x2 = 0.2499	1.242
318.15 K, x2 = 0.2955	1.201
318.15 K, x2 = 0.3358	1.168
318.15 K, x2 = 0.4031	1.12
318.15 K, x2 = 0.4279	1.105
318.15 K, x2 = 0.48	1.077
318.15 K, x2 = 0.5272	1.055
318.15 K, x2 = 0.5827	1.033
318.15 K, x2 = 0.6342	1.015
318.15 K, x2 = 0.6953	0.997
318.15 K, x2 = 0.7509	0.985
318.15 K, x2 = 0.8169	0.975
318.15 K, x2 = 0.8761	0.968

CCCCCCCC(=O)O + CCCCCCCCCCCC(=O)O
100 kPa, x2 = 0.25
Conditions	viscosity [mPa·s]
293.15 K	8.223
298.15 K	7.085
303.15 K	6.158
308.15 K	5.394
313.15 K	4.759
318.15 K	4.227
323.15 K	3.777
